PubChem BioAssay AID330 (DTP/NCI, 2004)
“And” between values parts separate entries of the source, which are not always exact repeats. Identical values can stand only once. Inconclusive results and toxic doses are left out.

Test system: P388 leukemia ip, CD2F1 mice, survival T/C
Assay: NCI In Vivo Anticancer Drug Screen. Data for tumor model P388 Leukemia (intraperitoneal) in CD2F1 (CDF1) mice
Details: endpoint: median survival time, higher = longer survival
Summary of the method: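 Mice carrying the transplanted tumor received test compound or vehicle. Survival was recorded in each group, and the value is the treated-group measurement divided by that of the vehicle-treated control group.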

[1] = dose: 50.0 mg/kg/injection, schedule: Q01DX005 (ip), vehicle: Klucel (hydroxypropylcellulose) (HPC)
[2] = dose: 100.0 mg/kg/injection, schedule: Q01DX005 (ip), vehicle: Klucel (hydroxypropylcellulose) (HPC)
[3] = dose: 200.0 mg/kg/injection, schedule: Q01DX005 (ip), vehicle: Klucel (hydroxypropylcellulose) (HPC)
[4] = dose: 25.0 mg/kg/injection, schedule: Q01DX009 (ip), vehicle: saline with Tween-80
[5] = dose: 50.0 mg/kg/injection, schedule: Q01DX009 (ip), vehicle: saline with Tween-80

Cn1c(=O)oc2cc([N+](=O)[O-])c(Cl)cc21
T/C [1]: 95 % of control
T/C [2]: 92 % of control

COc1cc([N+](=O)[O-])c(S(=O)(=O)O)cc1N=N/C=N/Nc1cc(S(=O)(=O)O)c([N+](=O)[O-])cc1OC
T/C [1]: 118 % of control
T/C [2]: 110 % of control
T/C [3]: 108 % of control

CN=NNc1ccc([N+](=O)[O-])cc1
T/C (dose: 12.5 mg/kg/injection, schedule: Q01DX009 (ip), vehicle: Klucel (hydroxypropylcellulose) (HPC)): 98 % of control and 94 % of control
T/C (dose: 25.0 mg/kg/injection, schedule: Q01DX009 (ip), vehicle: Klucel (hydroxypropylcellulose) (HPC)): 103 % of control and 109 % of control
T/C (dose: 50.0 mg/kg/injection, schedule: Q01DX009 (ip), vehicle: Klucel (hydroxypropylcellulose) (HPC)): 108 % of control and 111 % of control
T/C (dose: 100.0 mg/kg/injection, schedule: Q01DX009 (ip), vehicle: Klucel (hydroxypropylcellulose) (HPC)): 112 % of control
T/C (dose: 200.0 mg/kg/injection, schedule: Q01DX009 (ip), vehicle: Klucel (hydroxypropylcellulose) (HPC)): 167 % of control

CC1=CC(=C2C=CC(=[N+](C)C)C=C2)C=C(C)S1
T/C (dose: 3.12 mg/kg/injection, schedule: Q01DX009 (ip), vehicle: distilled water + Tween-80 + alcohol): 109 % of control
T/C (dose: 6.25 mg/kg/injection, schedule: Q01DX009 (ip), vehicle: distilled water + Tween-80 + alcohol): 119 % of control
T/C (dose: 12.5 mg/kg/injection, schedule: Q01DX009 (ip), vehicle: distilled water + Tween-80 + alcohol): 120 % of control

C=C/C(C)=C/[C@H](C)C(=O)C[C@H](O)CC1CC(=O)NC(=O)C1
T/C (dose: 6.25 mg/kg/injection, schedule: Q01DX009 (ip), vehicle: saline with Tween-80): 102 % of control
T/C (dose: 6.25 mg/kg/injection, schedule: Q04DX003 (ip), vehicle: saline with Tween-80): 111 % of control
T/C (dose: 12.5 mg/kg/injection, schedule: Q01DX009 (ip), vehicle: saline with Tween-80): 118 % of control
T/C (dose: 12.5 mg/kg/injection, schedule: Q04DX003 (ip), vehicle: saline with Tween-80): 108 % of control
T/C [4]: 155 % of control
T/C (dose: 25.0 mg/kg/injection, schedule: Q04DX003 (ip), vehicle: saline with Tween-80): 111 % of control
T/C (dose: 35.0 mg/kg/injection, schedule: Q01DX009 (ip), vehicle: saline with Tween-80): 151 % of control
T/C [5]: 150 % of control
T/C (dose: 50.0 mg/kg/injection, schedule: Q04DX003 (ip), vehicle: saline with Tween-80): 111 % of control
T/C (dose: 75.0 mg/kg/injection, schedule: Q01DX009 (ip), vehicle: saline with Tween-80): 168 % of control
T/C (dose: 75.0 mg/kg/injection, schedule: Q01DX009 (ip), vehicle: saline): 158 % of control
T/C (dose: 100.0 mg/kg/injection, schedule: Q04DX003 (ip), vehicle: saline with Tween-80): 121 % of control
T/C (dose: 150.0 mg/kg/injection, schedule: Q01DX009 (ip), vehicle: saline): 106 % of control
T/C (dose: 200.0 mg/kg/injection, schedule: Q04DX003 (ip), vehicle: saline with Tween-80): 101 % of control and 121 % of control

COC(=O)C(CSC(c1ccccc1)(c1ccccc1)c1ccccc1)NC(=O)CC(NC(=O)OCc1ccccc1)C(N)=O (stereo not given)
T/C (dose: 12.5 mg/kg/injection, schedule: Q01DX009 (ip), vehicle: distilled water + Tween-80): 106 % of control
T/C (dose: 25.0 mg/kg/injection, schedule: Q01DX009 (ip), vehicle: distilled water + Tween-80): 93 % of control
T/C (dose: 50.0 mg/kg/injection, schedule: Q01DX009 (ip), vehicle: distilled water + Tween-80): 103 % of control
T/C (dose: 100.0 mg/kg/injection, schedule: Q01DX009 (ip), vehicle: distilled water + Tween-80): 94 % of control
T/C (dose: 200.0 mg/kg/injection, schedule: Q01DX009 (ip), vehicle: distilled water + Tween-80): 102 % of control

C/C=C/C(=O)Nc1cccc(OC(=O)NC(C)(C)C)c1
T/C [4]: 101 % of control
T/C [5]: 100 % of control
T/C (dose: 100.0 mg/kg/injection, schedule: Q01DX009 (ip), vehicle: saline with Tween-80): 97 % of control

OC(C[n+]1ccccc1)c1ccc2c(c1)OCO2 (stereo not given)
T/C (dose: 50.0 mg/kg/injection, schedule: Q01DX005 (ip), vehicle: saline with Tween-80): 106 % of control
T/C (dose: 100.0 mg/kg/injection, schedule: Q01DX005 (ip), vehicle: saline with Tween-80): 97 % of control

Cc1cccc(N2C(=O)C=C(NCc3nc4ccccc4[nH]3)C2c2ccccc2)c1 (stereo not given)
T/C [1]: 104 % of control
T/C [2]: 100 % of control
T/C [3]: 100 % of control

CCn1cnc2c(SC3CCCC3)ncnc21
T/C (dose: 100.0 mg/kg/injection, schedule: Q01DX009 (ip), vehicle: saline sonified): 105 % of control
T/C (dose: 200.0 mg/kg/injection, schedule: Q01DX009 (ip), vehicle: saline sonified): 110 % of control

COc1ccc(S(N)(=O)=O)cc1[N+](=O)[O-]
T/C (dose: 100.0 mg/kg/injection, schedule: Q04DX003 (ip), vehicle: Klucel (hydroxypropylcellulose) (HPC)): 97 % of control
T/C (dose: 200.0 mg/kg/injection, schedule: Q04DX003 (ip), vehicle: Klucel (hydroxypropylcellulose) (HPC)): 104 % of control
T/C (dose: 400.0 mg/kg/injection, schedule: Q04DX003 (ip), vehicle: Klucel (hydroxypropylcellulose) (HPC)): 97 % of control
